Data published in the supplement of paper PMC10307832.

Tests used:
Test in all cases: relative viability (nuclei count vs DMSO), 5 days (fraction); higher = more cells survive
[1] = tested on: COR-L 105
Method in brief: (§1)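 Lung cancer cell lines were pin-tool dosed in 1536-well plates on the day after seeding, with either a lone drug or a fixed anchor-drug dose plus five library-drug doses (not always all listed) in √10 steps. Nuclei were counted on 4× images after 5 days. Relative viability is the ratio of treated-well to vehicle-well nuclei counts, with each value a median of duplicate plates.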

[2] = tested on: COR-L23
Method in brief: as §1

[3] = tested on: HARA
Method in brief: as §1

[4] = tested on: HCC-15
Method in brief: as §1

[5] = tested on: HOP-62
Method in brief: as §1

[6] = tested on: NCI-H1355
Method in brief: as §1

[7] = tested on: NCI-H1395
Method in brief: as §1

[8] = tested on: NCI-H1734
Method in brief: as §1

[9] = tested on: NCI-H1755
Method in brief: as §1

[10] = tested on: NCI-H1792
Method in brief: as §1

[11] = tested on: NCI-H1793
Method in brief: as §1

[12] = tested on: NCI-H1993
Method in brief: as §1

[13] = tested on: NCI-H2009
Method in brief: as §1

[14] = tested on: NCI-H2170
Method in brief: as §1

[15] = tested on: NCI-H2228
Method in brief: as §1

[16] = tested on: NCI-H2347
Method in brief: as §1

[17] = tested on: NCI-H358
Method in brief: as §1

[18] = tested on: NCI-H647
Method in brief: as §1

[19] = tested on: NCI-H838
Method in brief: as §1

[20] = tested on: SK-MES-1
Method in brief: as §1

[21] = tested on: UMC-11
Method in brief: as §1

Question: O=c1cc(N2CCOCC2)oc2c(-c3cccc4c3sc3ccccc34)cccc12 + CS(=O)(=O)N1CCN(Cc2cc3nc(-c4cccc5[nH]ncc45)nc(N4CCOCC4)c3s2)CC1 [Pictilisib] (partner 1 µM) was tested. Which relative viability ([1]; first compound 0.01 µM) did it give?
Answer: 0.347

Question: What about the relative viability ([1]; first compound 0.03162 µM) of the same compound?
Answer: 0.394

Question: And the relative viability ([1]; first compound 0.1 µM)?
Answer: 0.49

Question: And the relative viability ([1]; first compound 0.3162 µM)?
Answer: 0.422

Question: And the relative viability ([1]; first compound 1 µM)?
Answer: 0.439

Question: And the relative viability ([2]; first compound 0.01 µM)?
Answer: 0.765

Question: And the relative viability ([2]; first compound 0.03162 µM)?
Answer: 0.855

Question: And the relative viability ([2]; first compound 0.1 µM)?
Answer: 0.846

Question: What about the relative viability ([2]; first compound 0.3162 µM) of the same compound?
Answer: 0.757

Question: And the relative viability ([2]; first compound 1 µM)?
Answer: 0.778

Question: What about the relative viability ([3]; first compound 0.01 µM) of the same compound?
Answer: 0.315

Question: And the relative viability ([3]; first compound 0.03162 µM)?
Answer: 0.381

Question: What about the relative viability ([3]; first compound 0.1 µM) of the same compound?
Answer: 0.435

Question: What about the relative viability ([3]; first compound 0.3162 µM) of the same compound?
Answer: 0.362

Question: And the relative viability ([3]; first compound 1 µM)?
Answer: 0.457

Question: What about the relative viability ([4]; first compound 0.01 µM) of the same compound?
Answer: 0.66

Question: What about the relative viability ([4]; first compound 0.03162 µM) of the same compound?
Answer: 0.74

Question: And the relative viability ([4]; first compound 0.1 µM)?
Answer: 0.939

Question: What about the relative viability ([4]; first compound 0.3162 µM) of the same compound?
Answer: 0.774

Question: And the relative viability ([4]; first compound 1 µM)?
Answer: 0.714

Question: And the relative viability ([5]; first compound 0.01 µM)?
Answer: 0.755

Question: What about the relative viability ([5]; first compound 0.03162 µM) of the same compound?
Answer: 0.696

Question: What about the relative viability ([5]; first compound 0.1 µM) of the same compound?
Answer: 0.594

Question: What about the relative viability ([5]; first compound 0.3162 µM) of the same compound?
Answer: 0.649

Question: And the relative viability ([5]; first compound 1 µM)?
Answer: 0.697

Question: And the relative viability ([6]; first compound 0.01 µM)?
Answer: 0.486

Question: What about the relative viability ([6]; first compound 0.03162 µM) of the same compound?
Answer: 0.502

Question: What about the relative viability ([6]; first compound 0.3162 µM) of the same compound?
Answer: 0.429

Question: What about the relative viability ([6]; first compound 1 µM) of the same compound?
Answer: 0.419

Question: What about the relative viability ([7]; first compound 0.01 µM) of the same compound?
Answer: 0.587

Question: And the relative viability ([7]; first compound 0.03162 µM)?
Answer: 0.653

Question: And the relative viability ([7]; first compound 0.1 µM)?
Answer: 0.484

Question: And the relative viability ([7]; first compound 0.3162 µM)?
Answer: 0.623

Question: What about the relative viability ([7]; first compound 1 µM) of the same compound?
Answer: 0.627

Question: What about the relative viability ([8]; first compound 0.01 µM) of the same compound?
Answer: 0.445

Question: And the relative viability ([8]; first compound 0.03162 µM)?
Answer: 0.472

Question: And the relative viability ([8]; first compound 0.1 µM)?
Answer: 0.452

Question: And the relative viability ([8]; first compound 0.3162 µM)?
Answer: 0.504

Question: What about the relative viability ([8]; first compound 1 µM) of the same compound?
Answer: 0.446

Question: What about the relative viability ([9]; first compound 0.01 µM) of the same compound?
Answer: 0.288

Question: And the relative viability ([9]; first compound 0.03162 µM)?
Answer: 0.402

Question: What about the relative viability ([9]; first compound 0.1 µM) of the same compound?
Answer: 0.457

Question: And the relative viability ([9]; first compound 0.3162 µM)?
Answer: 0.458

Question: And the relative viability ([9]; first compound 1 µM)?
Answer: 0.395

Question: And the relative viability ([10]; first compound 0.01 µM)?
Answer: 0.286

Question: And the relative viability ([10]; first compound 0.03162 µM)?
Answer: 0.264

Question: And the relative viability ([10]; first compound 0.1 µM)?
Answer: 0.244

Question: What about the relative viability ([10]; first compound 0.3162 µM) of the same compound?
Answer: 0.274

Question: And the relative viability ([10]; first compound 1 µM)?
Answer: 0.252

Question: And the relative viability ([11]; first compound 0.01 µM)?
Answer: 0.289

Question: And the relative viability ([11]; first compound 0.03162 µM)?
Answer: 0.348

Question: What about the relative viability ([11]; first compound 0.1 µM) of the same compound?
Answer: 0.336

Question: What about the relative viability ([11]; first compound 0.3162 µM) of the same compound?
Answer: 0.335

Question: And the relative viability ([11]; first compound 1 µM)?
Answer: 0.35

Question: What about the relative viability ([12]; first compound 0.01 µM) of the same compound?
Answer: 0.937

Question: And the relative viability ([12]; first compound 0.03162 µM)?
Answer: 0.945

Question: What about the relative viability ([12]; first compound 0.1 µM) of the same compound?
Answer: 0.812

Question: And the relative viability ([12]; first compound 0.3162 µM)?
Answer: 0.759

Question: And the relative viability ([12]; first compound 1 µM)?
Answer: 0.799

Question: What about the relative viability ([13]; first compound 0.01 µM) of the same compound?
Answer: 0.802

Question: And the relative viability ([13]; first compound 0.03162 µM)?
Answer: 0.864

Question: And the relative viability ([13]; first compound 0.1 µM)?
Answer: 0.735

Question: And the relative viability ([13]; first compound 0.3162 µM)?
Answer: 0.796

Question: What about the relative viability ([13]; first compound 1 µM) of the same compound?
Answer: 0.813

Question: And the relative viability ([14]; first compound 0.01 µM)?
Answer: 0.299

Question: And the relative viability ([14]; first compound 0.03162 µM)?
Answer: 0.331

Question: What about the relative viability ([14]; first compound 0.1 µM) of the same compound?
Answer: 0.369

Question: And the relative viability ([14]; first compound 0.3162 µM)?
Answer: 0.375

Question: And the relative viability ([14]; first compound 1 µM)?
Answer: 0.344

Question: What about the relative viability ([15]; first compound 0.03162 µM) of the same compound?
Answer: 0.351

Question: And the relative viability ([15]; first compound 0.1 µM)?
Answer: 0.668

Question: What about the relative viability ([15]; first compound 0.3162 µM) of the same compound?
Answer: 0.39

Question: And the relative viability ([15]; first compound 1 µM)?
Answer: 0.512

Question: What about the relative viability ([16]; first compound 0.01 µM) of the same compound?
Answer: 0.671

Question: And the relative viability ([16]; first compound 0.03162 µM)?
Answer: 0.442

Question: And the relative viability ([16]; first compound 0.1 µM)?
Answer: 0.502

Question: What about the relative viability ([16]; first compound 0.3162 µM) of the same compound?
Answer: 0.802

Question: What about the relative viability ([16]; first compound 1 µM) of the same compound?
Answer: 0.468

Question: What about the relative viability ([17]; first compound 0.01 µM) of the same compound?
Answer: 0.339

Question: What about the relative viability ([17]; first compound 0.03162 µM) of the same compound?
Answer: 0.353

Question: What about the relative viability ([17]; first compound 0.1 µM) of the same compound?
Answer: 0.338

Question: And the relative viability ([17]; first compound 0.3162 µM)?
Answer: 0.307

Question: What about the relative viability ([17]; first compound 1 µM) of the same compound?
Answer: 0.318

Question: What about the relative viability ([18]; first compound 0.01 µM) of the same compound?
Answer: 0.437

Question: What about the relative viability ([18]; first compound 0.3162 µM) of the same compound?
Answer: 0.578

Question: And the relative viability ([18]; first compound 1 µM)?
Answer: 0.439

Question: And the relative viability ([19]; first compound 0.01 µM)?
Answer: 0.427

Question: What about the relative viability ([19]; first compound 0.03162 µM) of the same compound?
Answer: 0.389

Question: What about the relative viability ([19]; first compound 0.1 µM) of the same compound?
Answer: 0.434

Question: And the relative viability ([19]; first compound 0.3162 µM)?
Answer: 0.472

Question: And the relative viability ([19]; first compound 1 µM)?
Answer: 0.388

Question: What about the relative viability ([20]; first compound 0.01 µM) of the same compound?
Answer: 0.327

Question: What about the relative viability ([20]; first compound 0.03162 µM) of the same compound?
Answer: 0.314

Question: What about the relative viability ([20]; first compound 0.1 µM) of the same compound?
Answer: 0.396

Question: And the relative viability ([20]; first compound 0.3162 µM)?
Answer: 0.31

Question: What about the relative viability ([20]; first compound 1 µM) of the same compound?
Answer: 0.362

Question: And the relative viability ([21]; first compound 0.01 µM)?
Answer: 0.812

Question: And the relative viability ([21]; first compound 0.03162 µM)?
Answer: 0.825

Question: And the relative viability ([21]; first compound 0.1 µM)?
Answer: 0.773

Question: What about the relative viability ([21]; first compound 0.3162 µM) of the same compound?
Answer: 0.819

Question: What about the relative viability ([21]; first compound 1 µM) of the same compound?
Answer: 0.796
